Tests used:
MEF cells = assay: Caspase activity assay (CellEvent Caspase-3/7) in MEF cells expressing DYN2 (K44A); assay type: cell-based, mouse; conditions: 10 μg/mL WGA or 50 μM FCF; for anoikis resistance acquired by DYN2 (K44A) expression: MEF DYN2 (K44A); for caspase activation: detached MEF DYN2 (K44A), 4 hours
Excerpt: Inhibitors. Wheat Germ Agglutinin (WGA) was purchased from Sigma (product #L9640). Forchlorfenuron (FCF) was purchased from Sigma (product #C2791). VitroGel and VitroGel-RGD were purchased from TheWell Bioscience (sku #s TWG001 and TWG002). H1152 was purchased from Tocris (catalogue #2414). NSC6683394 was purchased from Sigma (product #341216). Dabrafenib (GSK2118436), and Trametinib (GSK1120212) were purchased from Selleckchem. Transient expression of dominant negative Dyn2 (K44A) 66,67 was achieved through adenovirus transduction68 as previously described69 with cells analyzed 16-18 hours after transduction.
(§1) Detached/Adhered Cell Culture. […] Drug treatments, solvent-only controls, or CellEvent caspase activity sensor were added to suspensions if appropriate to the experiment, and then immediately transferred to both an uncoated (for detached cells) and ibiTreated (for adhered cells) 8-well ibidi u-slide (ibidi cat #80821 and 80826) at 200 μl/well. Both slides were stored at 37° C. and 5% CO2 for either 24 hours (hrs) for viability assays, 3 hrs for ERK activity assays or 4 hours for caspase activation assays. Uncoated slides (detached) were nutated at 20 rpm during this time. […] For experiments using MAPKi A375 cells, Dabrafenib and Trametinib treatment was continued over the course of the experiment.
Viability, ERK Activity, and Caspase ActivityCell Counting Assays. Viability, ERK activity, and caspase activity assays were analyzed using live-cell fluorescent and phase-contrast microscopy, performed on a Nikon Ti microscope equipped with an environmental chamber held at 37° C. and 5% CO2 at 20× magnification. For viability assays, cells were stained with ethidium homodimer-1 (Invitrogen cat #E1169) at 4 µM and Hoechst (ThermoFisher cat #H3570) at 10 μg/ml for 15 minutes before imaging. Live and dead cells (as identified by significant cellular ethidium signal) were counted using the Cell Counter ImageJ plugin. For ERK activity assays, live cells carrying ERK-nKTR-GFP and H2B-mCherry were imaged after 3 hours of experimental conditions and high/low ERK activity cells were counted with Cell Counter ImageJ plugin. Cells in which nuclear GFP signals were by eye higher than cytoplasmic signal (“brighter” nucleus visible within “darker” cytoplasm) were labelled ERK low, while cytoplasmic signals equal to or higher than nuclear signal (nucleus indistinguishable from cytoplasm or “darker” nucleus within “brighter” cytoplasm) were labelled ERK high. To control for unconscious bias in making this determination, the identity of all ERK experimental groups were blinded from the analyst. […] Caspase positive and negative cells (as identified by significant cellular CellEvent signal) were counted using the Cell Counter ImageJ plugin.

M498 cells = assay: Detached/adhered viability assay, ethidium homodimer staining, M498; assay type: cell-based, human; conditions: for cell death: 24 hours of WGA
Protocol: (§2) Bleb formation was inhibited using wheat germ agglutinin (WGA), a lectin that reduces plasma membrane deformability by crosslinking components of the glycocalyx. […] To investigate putative bleb function as a driver of anchorage-independent cell survival assays were designed that consistently minimized both cell-substrate and cell-cell attachment over a period of 24 hours. This was accomplished by seeding cells at very low density (approx. 250 or 100 cells/ml) in non-adherent culture dishes under constant gentle agitation. For controls, cells were grown at identical concentrations in adherent variants of the same culture dishes. Together, this generated pairs of ‘detached’ and ‘adhered’ cell populations in paired same-day experiments.
Detached/Adhered Cell Culture. […] Drug treatments, solvent-only controls, or CellEvent caspase activity sensor were added to suspensions if appropriate to the experiment, and then immediately transferred to both an uncoated (for detached cells) and ibiTreated (for adhered cells) 8-well ibidi u-slide (ibidi cat #80821 and 80826) at 200 μl/well. Both slides were stored at 37° C. and 5% CO2 for either 24 hours (hrs) for viability assays, 3 hrs for ERK activity assays or 4 hours for caspase activation assays. Uncoated slides (detached) were nutated at 20 rpm during this time. […]
Viability, ERK Activity, and Caspase ActivityCell Counting Assays. Viability, ERK activity, and caspase activity assays were analyzed using live-cell fluorescent and phase-contrast microscopy, performed on a Nikon Ti microscope equipped with an environmental chamber held at 37° C. and 5% CO2 at 20× magnification. […] Live and dead cells (as identified by significant cellular ethidium signal) were counted using the Cell Counter ImageJ plugin. For ERK activity assays, live cells carrying ERK-nKTR-GFP and H2B-mCherry were imaged after 3 hours of experimental conditions and high/low ERK activity cells were counted with Cell Counter ImageJ plugin. […] Caspase positive and negative cells (as identified by significant cellular CellEvent signal) were counted using the Cell Counter ImageJ plugin.

MV3 cells = assay: Detached/adhered viability assay, ethidium homodimer staining, MV3; assay type: cell-based, human; conditions: for cell death: 24 hours of WGA
Protocol: as §2
as §1, with “experiment. […]” for “experiment.”
Viability, ERK Activity, and Caspase ActivityCell Counting Assays. Viability, ERK activity, and caspase activity assays were analyzed using live-cell fluorescent and phase-contrast microscopy, performed on a Nikon Ti microscope equipped with an environmental chamber held at 37° C. and 5% CO2 at 20× magnification. […] Live and dead cells (as identified by significant cellular ethidium signal) were counted using the Cell Counter ImageJ plugin. For ERK activity assays, live cells carrying ERK-nKTR-GFP and H2B-mCherry were imaged after 3 hours of experimental conditions and high/low ERK activity cells were counted with Cell Counter ImageJ plugin. […]

| Compound | anoikis resistance acquired by DYN2 (K44A) expression (MEF cells) | caspase activation (MEF cells) | anoikis resistance (cell death adhered vs detached) (M498 cells; M498, 50 μM FCF, 24 hours) | anoikis resistance (cell death adhered vs detached) (MV3 cells; MV3, 50 μM FCF, 24 hours) | cell death (M498 cells; adhered M498 cells) | cell death (M498 cells; detached M498 cells) | cell death (MV3 cells; adhered MV3 cells) | cell death (MV3 cells; detached MV3 cells) |
| --- | --- | --- | --- | --- | --- | --- | --- | --- |
| O=C(Nc1ccccc1)Nc1ccnc(Cl)c1 [FCF, forchlorfenuron] | reversed | returned to levels seen in matched non-blebbing control cells | greatly disrupted anoikis resistance | greatly disrupted anoikis resistance | – | – | – | – |
| wheat germ agglutinin [WGA] | reversed | returned to levels seen in matched non-blebbing control cells | – | – | die upon WGA treatment | significantly more death | little to none | high levels of cell death |
